“Also recorded” adds a separate entry of the source.
How the values were obtained:
Soybean seeds = assay: Soybean germination test on media with dicamba or decarboxylation product; assay type: in vivo; settings: FIG. 2, concentration not stated
[1] = test system: Arabidopsis ecotype Columbia (Col-0); assay: Arabidopsis root growth inhibition assay; settings: 6 days
Procedure: Phytotoxicity of other major dicamba decarboxylated products was evaluated using Arabidopsis root growth inhibition assay. 4-chloro-3-methoxy phenol was purchased from Biogene Organics, Inc. (catalog number U06-642-79). 2,5-dichloro phenol was purchased from Sigma-Aldrich (catalog number D70007). Briefly, seeds of Arabidopsis ecotype Columbia (Col-0) were surface sterilized with 70% (v/v) ethanol for 5 minutes and 10% (v/v) bleach for 15 minutes. After being washed three times with distilled water, the seeds were germinated on 1× Murashige and Skoog (MS) medium with a pH of 5.7, 3% (w/v) sucrose, and 0.8% (w/v) agar. After incubation for 3.5 days, the seedlings were transferred to 1× MS medium containing B5 vitamin, 3% (w/v) sucrose, 1.2% (w/v) agar, and filter sterilized compounds was added to the media at 60° C. The concentrations of compounds including dicamba were 0 μM, 1.0 μM, and 10 μM. The seedlings were placed vertically, and the temperature maintained at 23° C. to allow root growth along the surface of the agar, with a photoperiod of 16 h of light and 8 h of dark.
After 6 days on media, root growth was evaluated. In wild type Arabidopsis, root growth inhibition is expected from auxin herbicide treatment.

| soybean germination (Soybean seeds) | SMILES | Arabidopsis root growth ([1]; 1 uM in medium) | Arabidopsis root growth ([1]; 10 uM in medium) |
| --- | --- | --- | --- |
| not affected | COc1cc(Cl)ccc1Cl [2,5-DCA, 2,5-dichloro anisole] |  |  |
|  | Oc1cc(Cl)ccc1Cl [2,5-dichloro phenol] | not affected; also recorded: did not have any effect | not affected; also recorded: did not have any effect |

From patent US20160053277A1, “Compositions Having Dicamba Decarboxylase Activity and Methods of Use” (PIONEER HI-BRED INTERNATIONAL, INC., priority 2013, published 2016)
